# Assay results from patent US20120277209A1, “PYRAZINE COMPOUNDS AS PHOSPHODIESTERASE 10 INHIBITORS” (Amgen Inc., priority 2009, published 2012).
# Target: PDE10 (UniProt Q9Y233)
# Experiment: PDE10 enzyme inhibition, IMAP TR-FRET assay (MPDE10A7 Enzyme Activity and Inhibition)
# Assay type: biochemical
# Conditions: IC50 class against PDE10; read-out: IC50
# Experimental: All compounds were divided in five classes based on their IC50 values against PDE10. The range of the IC50 in each class is as follows:
# An IMAP TR-FRET assay was used to analyze the enzyme activity (Molecular Devices Corp., Sunnyvale Calif.). 5 μL of serial diluted PDE10A (BPS Bioscience, San Diego, Calif.) or tissue homogenate was incubated with equal volumes of diluted fluorescein labeled cAMP or cGMP for 60 min in 384-well polystyrene assay plates (Corning, Corning, N.Y.) at room temperature. After incubation, the reaction was stopped by adding 60 μL of diluted binding reagents and was incubated for 3 hours to overnight at room temperature. The plates were read on an Envision (Perkin Elmer, Waltham, Mass.) for time resolved fluorescence resonance energy transfer. The data were analyzed with GraphPad Prism (La Jolla, Calif.).
# Enzyme Inhibition. To check the inhibition profile, 5 μL of serial diluted compounds were incubated with 5 μL of diluted PDE10 enzyme (BPS Bioscience, San Diego, Calif.) or tissue homogenate in a 384-well polystyrene assay plate (Corning, Corning, N.Y.) for 30 min at room temperature. After incubation, 10 μL of diluted fluorescein labeled cAMP or cGMP substrate were added and incubated for 60 min at room temperature. The reaction was stopped by adding 60 μL of diluted binding reagents and plates were read on an Envision (Perkin Elmer, Waltham, Mass.) for time resolved fluorescence resonance energy transfer. The data were analyzed with GraphPad Prism (La Jolla, Calif.).
# The tabulated IC50 data represent an average IC50 data for each compound.
row,IC50 [nM],Compound
1,< 25,"O=C(c1ccc(Oc2nccnc2C(=O)NCCc2ccc(C(F)(F)F)cc2)cc1)c1nc2ccccc2[nH]1 [Example 255, 3-(4-(1H-benzo[d]imidazole-2-carbonyl)phenoxy)-N-(4-(trifluoromethyl)phenethyl) pyrazine-2-carboxamide]"
2,< 25,"Clc1ccc(-c2nccnc2Oc2ccc(Nc3nc4ccccc4s3)cc2)cn1 [Example 145, N-(4-(3-(6-chloropyridin-3-yl)pyrazin-2-yloxy)phenyl)benzo[d]thiazol-2-amine]"
3,1000 to 5000,"Fc1cc(Oc2cnccn2)ccc1Nc1nc2ccccc2s1 [Example 216, N-(2-fluoro-4-(pyrazin-2-yloxy)phenyl)benzo[d]thiazol-2-amine]"
4,< 25,"COc1ncc(-c2nccnc2Oc2ccc(Nc3nc4ccccc4s3)cc2)cn1 [Example 144, N-(4-(3-(2-methoxypyrimidin-5-yl)pyrazin-2-yloxy)phenyl)benzo[d]thiazol-2-amine]"
5,< 25,"O=C(O)C1CN(c2nccnc2Oc2ccc(Nc3nc4ccccc4s3)cc2)C1 [Example 78, 1-(3-(4-(benzo[d]thiazol-2-ylamino)phenoxy)pyrazin-2-yl)azetidine-3-carboxylic acid]"
6,25 to 100,"COc1cncc(-c2nccnc2Oc2ccc(Nc3nc4ccccc4s3)cc2)c1 [Example 156, N-(4-(3-(5-methoxypyridin-3-yl)pyrazin-2-yloxy)phenyl)benzo[d]thiazol-2-amine]"
7,25 to 100,"O=C(c1ccc(Oc2nccnc2OCCCc2cccnc2)cc1)c1nc2ccccc2[nH]1 [Example 178, (1H-benzo[d]imidazol-2-yl)(4-(3-(3-(pyridin-3-yl)propoxy)pyrazin-2-yloxy)phenyl)methanone]"
8,< 25,"COc1ncccc1-c1nccnc1Oc1ccc(C(=O)c2nc3ccccc3n2C)cc1 [Example 119, (4-(3-(2-methoxypyridin-3-yl)pyrazin-2-yloxy)phenyl)(1-methyl-1H-benzo[d]imidazol-2-yl)methanone]"
9,< 25,"c1ccc2sc(Nc3ccc(Oc4nccnc4C4CCOCC4)cc3)nc2c1 [Example 208, N-(4-(3-(tetrahydro-2H-pyran-4-yl)pyrazin-2-yloxy)phenyl)benzo[d]thiazol-2-amine]"
10,< 25,"O=C(c1ccc(Oc2nccnc2C2CCOCC2)cc1)c1nc2ccc(F)cc2[nH]1 [Example 183, (6-fluoro-1H-benzo[d]imidazol-2-yl)(4-(3-(tetrahydro-2H-pyran-4-yl)pyrazin-2-yloxy)phenyl)methanone]"
11,25 to 100,"OCc1ccc(-c2nccnc2Oc2ccc(Nc3nc4ccccc4s3)cc2)cn1 [Example 146, (5-(3-(4-(benzo[d]thiazol-2-ylamino)phenoxy)pyrazin-2-yl)pyridin-2-yl)methanol]"
12,< 25,"CC(=O)N1CCC(c2nccnc2Oc2ccc(Nc3nc4ccccc4s3)cc2)CC1 [Example 225, 1-(4-(3-(4-(BENZO[D]THIAZOL-2-YLAMINO)PHENOXY)PYRAZIN-2-YL)PIPERIDIN-1-YL)ETHANONE]"
13,< 25,"[2H]C([2H])([2H])C(=O)N1CCC(c2nccnc2Oc2ccc(C(=O)c3nc4ccccc4[nH]3)cc2)CC1 [Example 231, 1-(4-(3-(4-(1H-benzo[d]imidazole-2-carbonyl)phenoxy)pyrazin-2-yl)piperidin-1-yl)perdeuteroethanone]"
14,< 25,1H-BENZIMIDAZOL-2-YL(4-((3-(CIS-4-HYDROXYCYCLOHEXYL)-2-PYRAZINYL)OXY)PHENYL)METHANONE AND 1H-BENZIMIDAZOL-2-YL(4-((3-(TRANS-4-HYDROXYCYCLOHEXYL)-2-PYRAZINYL)OXY)PHENYL)METHANONE [Example 188]
15,< 25,"COc1ncc(F)cc1-c1nccnc1Oc1ccc(C(=O)c2nc3ccccc3[nH]2)cc1 [Example 116, (1H-benzo[d]imidazol-2-yl)(4-(3-(5-fluoro-2-methoxypyridin-3-yl)pyrazin-2-yloxy)phenyl)methanone]"
16,< 25,"c1ccc2sc(Nc3ccc(Oc4nccnc4-c4cncnc4)cc3)nc2c1 [Example 143, N-(4-(3-(pyrimidin-5-yl)pyrazin-2-yloxy)phenyl)benzo[d]thiazol-2-amine]"
17,25 to 100,"c1ccc2sc(Nc3ccc(Oc4nccnc4N4CCc5[nH]cnc5C4)cc3)nc2c1 [Example 80, N-(4-(3-(6,7-dihydro-1H-imidazo[4,5-c]pyridin-5(4H)-yl)pyrazin-2-yloxy)phenyl)-benzo[d]thiazol-2-amine]"
18,< 25,"N#Cc1ccc(-c2nccnc2Oc2ccc(C(=O)c3nc4ccccc4[nH]3)cc2)cc1 [Example 108, 4-(3-(4-(1H-benzo[d]imidazole-2-carbonyl)phenoxy)pyrazin-2-yl)benzonitrile]"
19,< 25,"OC1CCCN(c2nccnc2Oc2ccc(Nc3nc4ccccc4s3)cc2)C1 (centres unmarked) [Example 69, 1-(3-(4-(benzo[d]thiazol-2-ylamino)phenoxy)pyrazin-2-yl)piperidin-3-ol]"
20,< 25,"C[C@]1(O)CC[C@@H](c2nccnc2Oc2ccc(C(=O)c3nc4ccccc4[nH]3)cc2)CC1 [Example 196, (1H-benzo[d]imidazol-2-yl)(4-(3-((1S,4S)-4-hydroxy-4-methylcyclohexyl)pyrazin-2-yloxy)phenyl)methanone]"

# Same assay, conditions: PDE10 enzyme inhibition; average IC50 data for each compound; read-out: Average IC50
row,Compound,IC50 [nM]
1,O=C(c1ccc(Oc2nccnc2N2CCC[C@H](CCO)C2)cc1)c1nc2ccccc2[nH]1 (stereo in doubt),1.86
2,OCCC1CCN(c2nccnc2Oc2ccc(Nc3nc4ccccc4s3)cc2)CC1 [drawing 735],9.55
3,Cc1cc(-c2nccnc2Oc2ccc(C(=O)c3nc4ccccc4[nH]3)cc2)ccn1 [drawing 726],5.67
4,O=C(O)c1ccc(-c2nccnc2Oc2ccc(C(=O)c3nc4ccccc4[nH]3)cc2)cc1 [drawing 761],2.06
5,C[C@H](Cc1ccccn1)NC(=O)c1nccnc1Oc1ccc(C(=O)c2nc3ccccc3[nH]2)cc1 (racemic),4.72
6,c1ccc2sc(Nc3ccc(Oc4nccnc4-c4ccc(N5CCOCC5)cc4)cc3)nc2c1 [drawing 763],1070
7,O=C(c1ccc(Oc2nccnc2N2CCC[C@H]2CO)cc1)c1nc2ccccc2[nH]1,1.12
8,O=C(c1ccc(Oc2nccnc2C(=O)NCCc2ccccc2)cc1)c1nc2ccccc2[nH]1 [drawing 827],4.47
9,c1ccc2sc(Nc3ccc(Oc4nccnc4-c4ccc(N5CCOCC5)nc4)cc3)nc2c1 [drawing 762],78
10,O=C(c1ccc(Oc2nccnc2C2=CC[C@@H](O)CC2)cc1)c1nc2ccccc2[nH]1 (racemic),1.69
11,c1ccc2sc(Nc3ccc(Oc4nccnc4[C@H]4CCOC4)cc3)nc2c1 (stereo in doubt),2.03
12,c1ccc2sc(Nc3ccc(Oc4nccnc4-c4cnc5[nH]ccc5c4)cc3)nc2c1 [drawing 765],76
13,COC(=O)N1CCC(c2nccnc2Oc2ccc(Nc3nc4ccccc4s3)cc2)CC1,0.206

# Next, values leading:
row,IC50 [nM],Compound
1,0.843,CCOC(=O)[C@H]1CCCN(c2nccnc2Oc2ccc(C(=O)c3nc4ccccc4[nH]3)cc2)C1 [drawing 831]
2,7.56,COc1cc(-c2nccnc2Oc2ccc(C(=O)c3nc4ccccc4[nH]3)cc2)ccn1 [drawing 883]
3,1.31,Cn1c(C(=O)c2ccc(Oc3nccnc3C3CCOCC3)cc2)nc2ccccc21 [drawing 874]
4,0.661,Fc1ccc2nc(Nc3ccc(Oc4nccnc4C4CCOCC4)cc3)sc2c1 [drawing 872]
5,1.42,C[C@]1(O)CC[C@@H](c2nccnc2Oc2ccc(C(=O)c3nc4ccccc4[nH]3)cc2)CC1 [drawing 923]
6,6.02,CN1CCC(c2nccnc2Oc2ccc(C(=O)c3nc4ccccc4[nH]3)cc2)CC1=O (centres unmarked) [drawing 926]
7,11.8,CN(c1ccc(Oc2nccnc2C2CCOCC2)cc1)c1nc2ccccc2s1 [drawing 870]
8,14,O=C(c1ccc(Oc2nccnc2OCc2ccncc2)cc1)c1nc2ccccc2[nH]1 [drawing 859]
9,0.577,COc1ccc(-c2nccnc2Oc2ccc(C(=O)c3nc4ccccc4[nH]3)cc2)c(OC)n1 [drawing 955]
10,12.2,COc1cncc(-c2nccnc2Oc2ccc(Nc3nc4ccccc4s3)cc2)c1 [drawing 918]
11,1710,O=C(c1ccc(Oc2nccnc2OCc2ccccn2)cc1)c1nc2ccccc2[nH]1 [drawing 849]
12,4.46,N#CC1(c2nccnc2Oc2ccc(Nc3nc4ccccc4s3)cc2)CCOCC1 [drawing 867]
13,1.34,O[C@H]1CCC[C@H](c2nccnc2Oc2ccc(Nc3nc4ccccc4s3)cc2)C1 [drawing 913]
14,1.12,O=C1CCC[C@@H](c2nccnc2Oc2ccc(Nc3nc4ccccc4s3)cc2)C1 [drawing 1002]
15,22.1,O=C1C=C(c2nccnc2Oc2ccc(Nc3nc4ccccc4s3)c(F)c2)CCC1 [drawing 998]
16,> 30000,Fc1ccc2sc(Nc3ccc(Oc4nccnc4Cl)cc3)nc2c1 [drawing 832]

# Same assay, conditions: PDE10 enzyme inhibition; chiral compounds separated from racemic mixtures; read-out: IC50
row,IC50 [nM],Compound
1,< 25,"CCOC(=O)[C@H]1CCCN(c2nccnc2Oc2ccc(C(=O)c3nc4ccccc4[nH]3)cc2)C1 [Example 264, (S)-ethyl 1-(3-(4-(1H-benzo[d]imidazole-2-carbonyl)phenoxy)pyrazin-2-yl)piperidine-3-carboxylate]"
